# Laboratory results: publication PMC4457452 (2013)
# What was measured:
# [1] = system: AATT hairpin duplex (DNA, hairpin) CGAATTCGTTTTCGAATTCG; assay: SPR steady state; details: 50 mM KCl, 10 mM HEPES, 3 mM EDTA, pH 7.3
# [2] = system: AATT hairpin duplex (DNA, hairpin) CGAATTCGTTTTCGAATTCG; assay: UV thermal melting, 260 nm; details: 50 mM KCl, 10 mM TRIS, 3 mM EDTA, pH 7.3
# [3] = system: Tel22 (DNA, G4) AGGGTTAGGGTTAGGGTTAGGG; assay: SPR steady state, two-site fit; details: 50 mM KCl; 10 mM HEPES, 3 mM EDTA, pH 7.3; site 1 of 2
# [4] = system: cMYC19 (DNA, G4) AGGGTGGGGAGGGTGGGGA; assay: SPR steady state, two-site fit; details: 50 mM KCl; 10 mM HEPES, 3 mM EDTA, pH 7.3; site 1 of 2
# [5] = system: MYC22 (DNA, G4) TGAGGGTGGGGAGGGTGGGGAA; assay: 1H NMR imino proton titration; details: 20 mM potassium phosphate; pH 6.02, 35 °C, 100 µM; 3'-end tetrad first, then 5'-end tetrad
# [6] = system: Tel22 (DNA, G4) AGGGTTAGGGTTAGGGTTAGGG; assay: UV thermal melting, 295 nm; details: 50 mM KCl, 10 mM TRIS, 3 mM EDTA, pH 7.3
# [7] = system: Tel22 (DNA, G4) AGGGTTAGGGTTAGGGTTAGGG; assay: SPR; details: 50 mM KCl; 10 mM HEPES, 3 mM EDTA, pH 7.3; ligand range 10 nM–10 µM
# [8] = system: cMYC19 (DNA, G4) AGGGTGGGGAGGGTGGGGA; assay: SPR; details: 50 mM KCl; 10 mM HEPES, 3 mM EDTA, pH 7.3; ligand range 10 nM–10 µM
# [9] = system: AATT hairpin duplex (DNA, hairpin) CGAATTCGTTTTCGAATTCG; assay: SPR; details: 50 mM KCl; 10 mM HEPES, 3 mM EDTA, pH 7.3; ligand range 10 nM–10 µM
K1 [1],∆Tm ([2]; drug:DNA 6:1),K1 [3],K1 [4],∆Tm ([6]; drug:DNA 6:1),Compound,further results
< 10^5 M^−1,3 °C,830000 M⁻¹,5e+06 M⁻¹,,CC1(C)C(/C=C/C=C2/N(CCC[N+](C)(C)C)c3ccc(C(=O)O)cc3C2(C)C)=[N+](CCC[N+](C)(C)C)c2ccc(C(=O)O)cc21,
< 10^5 M^−1,,2.7e+06 M⁻¹,8.4e+06 M⁻¹,19 °C,CC1(C)C(/C=C/C=C2/N(CCC[N+](C)(C)C)c3ccc(Cl)cc3C2(C)C)=[N+](CCC[N+](C)(C)C)c2ccc(Cl)cc21,
,,5.5e+06 M⁻¹,1.2e+07 M⁻¹,,CC1(C)C(/C=C/C=C2/N(CCC[N+](C)(C)C)c3ccc(Br)cc3C2(C)C)=[N+](CCC[N+](C)(C)C)c2ccc(Br)cc21,"binding [5]: yes; ∆Tm ([6]; drug:DNA 6:1, DNA 3 µM): 24 °C; K1 ([1]; up to 1 µM): < 10^5 M^−1; ∆Tm ([2]; drug:DNA 6:1, DNA 3 µM): 0 °C"
< 10^5 M^−1,3 °C,2.1e+06 M⁻¹,7.8e+06 M⁻¹,21 °C,CC1(C)C(/C=C/C=C2/N(CCC[N+](C)(C)C)c3ccc(I)cc3C2(C)C)=[N+](CCC[N+](C)(C)C)c2ccc(I)cc21,
< 10^5 M^−1,,5.9e+06 M⁻¹,6.3e+06 M⁻¹,,CC1(C)C(/C=C/C=C2/N(CCC[N+](C)(C)C)c3ccc(F)cc3C2(C)C)=[N+](CCC[N+](C)(C)C)c2ccc(F)cc21,

# Second part, the compound before the results:
Compound,K1 [1],∆Tm ([2]; drug:DNA 6:1),K1 [3],K1 [4],∆Tm ([6]; drug:DNA 6:1),further results
CC1(C)C(/C=C/C=C2/N(CCC[N+](C)(C)C)c3ccccc3C2(C)C)=[N+](CCC[N+](C)(C)C)c2ccccc21,,2 °C,390000 M⁻¹,3.8e+06 M⁻¹,14 °C,binding [5]: yes; K1 ([1]; up to 10 µM): < 10^5 M^−1
CC1(C)C(/C=C/C=C2/N(CCC[N+](C)(C)C)c3ccc(S(=O)(=O)O)cc3C2(C)C)=[N+](CCC[N+](C)(C)C)c2ccc(S(=O)(=O)O)cc21,< 10^5 M^−1,,820000 M⁻¹,570000 M⁻¹,1 °C,
CC1(C)C(/C=C/C=C2/N(CCCc3ccccc3)c3ccccc3C2(C)C)=[N+](CCCc2ccccc2)c2ccccc21,< 10^5 M^−1,,130000 M⁻¹,1.2e+06 M⁻¹,11 °C,
CCCCN1/C(=C/C=C/C2=[N+](CCCC)c3ccccc3C2(C)C)C(C)(C)c2ccccc21,,,,,0 °C,binding [7]: no; binding [8]: no; binding [9]: no
